Laboratory results taken from patent publication US9090633B2, “Substituted 4-(arylamino) selenophenopyrimidine compounds and methods of use thereof” (KASINA LAILA INNOVA PHARMACEUTICALS PRIVATE LIMITED, priority 2010, dated 2013).

Assays:
[1] = tested on: human lung carcinoma A549 cells; test: MTT based cell proliferation assay, A549; settings: for IC50: A549, 72 h, read-out: Cell proliferation inhibition in A549 (Lung carcinoma), IC50
Experimental: (§1) MTT [3-(4,5-dimethylthiazol-2-yl)-2,5-diphenyltetrazolium bromide incorporation based cell proliferation assay was performed using standard procedure. […] The assay was carried out according to the instructions provided by the vendor. […] Vehicle control culture wells received only a maximum of 0.5% DMSO. Thereafter, 0.5 mg/ml of MTT reagent was added to each well and the microplate was incubated further for 4 h at 37° C. in presence of 5% CO2. Finally, the cells were solubilized by adding solubilizing solution and allowed to incubate at 37° C. overnight. After complete solubilization of the formazan crystals the absorbance was read at 540 nm in a microplate reader (BioRad, USA).
(§2) The evaluation of cell proliferation inhibitory activities of the compounds was done in two phases—(1) Screening, and (2) half-maximal inhibitory concentration (IC50) determination. In the screening phase, the cells were treated with different concentrations.

[2] = tested on: human prostate DU145 cells; test: MTT based cell proliferation assay, DU145; settings: for IC50: DU-145, 72 h, read-out: Cell proliferation inhibition in DU145 (Prostate carcinoma), IC50
Experimental: as §1, §2

[3] = tested on: human colorectal carcinoma HT29 cells; test: MTT based cell proliferation assay, HT29; settings: for IC50: HT-29, 72 h, read-out: Cell proliferation inhibition in HT29 (Colon carcinoma), IC50
Experimental: as §1, §2

[4] = Homo sapiens, A549, read-out: Cell proliferation inhibition in A549 (Lung carcinoma)
[5] = Homo sapiens, DU-145, read-out: Cell proliferation inhibition in DU145 (Prostate carcinoma)
[6] = Homo sapiens, HT-29, read-out: Cell proliferation inhibition in HT29 (Colon carcinoma)

## C#Cc1cccc(Nc2ncnc3[se]c4c(c23)CCNC4)c1 [Compound 21, (3-ethynylphenyl)-5,6,7,8-tetrahydropyrimidino[5′,6′-5,4]selenopheno[2,3-c]pyridine-4-ylamine]
[1]; [4]
  inhibition at 25.575 µM: 11.6%
[2]; [5]
  inhibition at 25.575 µM: 12.9%
[3]; [6]
  inhibition at 25.575 µM: 4.66%

## Brc1cccc(Nc2ncnc3[se]c4c(c23)CCNC4)c1 [Compound 20, (3-bromophenyl)-5,6,7,8-tetrahydropyrimidino[5′,6′-5,4]selenopheno[2,3-c]pyridin-4-ylamine]
[1]; [4]
  inhibition at 22.421 µM: 0.45%
[2]; [5]
  inhibition at 22.421 µM: 13.4%
[3]; [6]
  inhibition at 22.421 µM: 8.96%

## Cc1c(C(=O)O)[se]c2ncnc(Nc3ccc(F)c(Cl)c3)c12 [Compound 15, 4-[(3-chloro-4-fluorophenyl)amino]-5-methylselenopheno[2,3-d]pyrimidine-6-carboxylic acid]
[1]; [4]
  inhibition at 240.539 µM: 25%
[2]; [5]
  inhibition at 240.539 µM: 41.2%
[3]; [6]
  inhibition at 240.539 µM: 18.9%

## Cc1c(C(=O)NCCCl)[se]c2ncnc(Nc3ccc(F)c(Cl)c3)c12 [Compound 25]
[1]; [4]
  inhibition at 19.92 µM: 0.19%
[2]; Homo sapiens
  IC50: 8.51 µM
[3]; Homo sapiens
  IC50: 9.24 µM

## Fc1ccc(Nc2ncnc3[se]cc(-c4ccccc4)c23)cc1Cl [Compound 14, (3-chloro-4-fluorophenyl)(5-phenylselenopheno[3,2-e]pyrimidin-4-yl]amine]
[1]; Homo sapiens
  IC50: 121 µM
[2]; Homo sapiens
  IC50: 105 µM

## Fc1ccc(Nc2ncnc3cc(-c4ccccc4)[se]c23)cc1Cl [Compound 29, (3-chloro-4-fluorophenyl)(6-phenylselenopheno[2,3-e]pyrimidin-4-yl)amine]
[1]; [4]
  inhibition at 30 µM: 45.5%
[2]; [5]
  inhibition at 25 µM: 30.8%
[3]; [6]
  inhibition at 25 µM: 43.1%

## Clc1cc(Nc2ncnc3[se]c4c(c23)CCCC4)cc(Cl)n1 [Compound 3, (2,6-dichloropyridin-4-yl)-5,6,7,8-tetrahydrobenzo[1,2-b]pyrimidino[5,6-d]selenophen-4-ylamine]
[1]; [4]
  inhibition at 22.935 µM: 15.6%
[2]; [5]
  inhibition at 22.935 µM: 18.3%
[3]; [6]
  inhibition at 22.935 µM: 13.8%

## ethyl 4-[(3-chloro-4-fluorophenyl)amino]-5-methylthioselenopheno[3,4-d]pyrimidine-7-carboxylate [Compound 32]
[1]; at 25 μM
  Cell proliferation inhibition in A549 (Lung carcinoma): 26.1% at 25 μM
[2]; at 25 μM
  Cell proliferation inhibition in DU145 (Prostate carcinoma): 9.75% at 25 μM
[3]; at 25 μM
  Cell proliferation inhibition in HT29 (Colon carcinoma): 12.97% at 25 μM

## Cc1[se]c2ncnc(Nc3ccc(F)c(Cl)c3)c2c1-c1ccccc1 [Compound 16]
[1]; Homo sapiens
  IC50: 44.1 µM
[2]; Homo sapiens
  IC50: 111 µM
[3]; [6]
  inhibition at 66.079 µM: 38.6%

## Fc1ccc(Nc2ncnc3[se]c4c(c23)CCNC4)cc1Cl [Compound 18, (3-chloro-4-fluorophenyl)-5,6,7,8-tetrahydropyrimidino[5′,6′-5,4]selenopheno[2,3-c]pyridine-4-ylamine]
[1]; Homo sapiens
  IC50: 82.6 µM
[2]; Homo sapiens
  IC50: 42.5 µM
[3]; Homo sapiens
  IC50: 39.1 µM

## Brc1cncc(Nc2ncnc3[se]c4c(c23)CCCC4)c1 [Compound 2, (5-bromo(3-pyridyl))-5,6,7,8-tetrahydrobenzo[1,2-b]pyrimidino[5,6-d]selenophen-4-ylamine]
[1]; [4]
  inhibition at 22.421 µM: 20.7%
[2]; [5]
  inhibition at 22.421 µM: 13.1%
[3]; [6]
  inhibition at 22.421 µM: 11.1%

## O=C1CCc2c([se]c3ncnc(Nc4ccc(F)c(Cl)c4)c23)C1 [Compound 26, 4-[(3-chloro-4-fluorophenyl)amino]-5,6,8-trihydrobenzo[2,1-b]pyrimidino[5,4-d]selenophen-7-one]
[1]; [4]
  inhibition at 23.148 µM: 17.5%
[2]; [5]
  inhibition at 23.148 µM: 65.1%
[3]; [6]
  inhibition at 23.148 µM: 30.9%

## Fc1ccc(Nc2ncnc3c2[se]c2ccccc23)cc1Cl [Compound 30, benzo[d]pyrimidino[5,6-b]selenophen-4-yl(3-chloro-4-fluorophenyl)amine]
[1]; Homo sapiens
  IC50: 21.8 µM
[2]; Homo sapiens
  IC50: 26.8 µM
[3]; [6]
  inhibition at 25 µM: 38.1%

## c1cnc(Nc2ncnc3[se]c4c(c23)CCCC4)cn1 [Compound 5, pyrazin-2-yl-5,6,7,8-tetrahydrobenzo[1,2-b]pyrimidino[5,6-d]selenophen-4-ylamine]
[2]; Homo sapiens
  IC50: 16.4 µM
